Experimental data reported in patent US5688771A, “Lipophilic oligopeptides with immunomodulating activity” (priority 1993, dated 1997).
“Also recorded” adds a separate entry of the source.

What was measured:
[1] = system: antibody producing cells (SRBC antigen); test: Plaque forming assay (PFC) in spleen cells of SRBC-immunized mice; assay type: in vivo; conditions: for Plaque Assay, PFC relative to control (100%) / Plaque Assay, PFC per 10^6 spleen cells: mice, 10 mg/kg i.p.; for Plaque Assay, PFC per 10^6 spleen cells: five days after injections; for Immunomodulating activity (in words): plaque-forming assay, Table 1
[2] = system: IgM antibody against SRBC antigen; test: Enzyme immunoassay of IgM antibody in blood of SRBC-immunized mice; assay type: in vivo
Procedure: Outbred CD1 mice were immunized with 0.1% volume for volume sheep red blood cell antigen suspended in saline. The mice were injected intraperitoneally with 0.5 ml, suspension of approximately 2×10^7 cells.
The mice were injected shortly thereafter with a suspension of an immunomodulator of the invention. The immunomodulator dose was a 0.23 ml of a 1 mg/ml suspension in phosphate buffered saline. The injected dose was 10 mg/kg. The second injection was also intraperitoneal.
The mice were killed five days after injections. Blood samples were taken for analysis of immunoglobulin. The determination was made by enzyme immunoassay using an anti μ-horseradish peroxidase conjugate. The spleen was removed, transferred to a petri dish containing 2 ml of Hank's balanced salt solution and 10 mMolar Hepes buffer (HBSS-HEPES). The spleen was gently crushed by the use of forceps, and the cell suspension was filtered through cotton gauze to eliminate cellular debris. The filtered suspension was brought to volume (5 ml) by the addition of HBSS-HEPES, the cells counted, and the suspension diluted to a final concentration of 5×10^6 cells/ml.

YAC-1 tumor cells = test: Natural killer cell activity, 4 hr chromium release assay; conditions: for % Chromium Release ± SD, Effector:Target Ratio 25:1 / % Chromium Release ± SD, Effector:Target Ratio 50:1: 50 mg/kg/day i.p. every other day for 4 injections, splenocytes 24 hr after final treatment, n = 5
Procedure: (§1) Mice were administered a 50 mg/kg dose of the immunomodulators of the invention and were subsequently sacrificed. The spleens were harvested and splenocytes isolated. Immunologic assays were conducted on those splenocytes that were taken 24 hours after final treatment. These cells were subjected to tests to determine macrophage and natural killer (NK) cell function.
Three week-old C57 BL/6 mice were procured and quarantined for 24 to 48 hours prior to treatment. The five oligopeptides described in tables 2, 3 and 4 were admixed with a 0.4% water solution of carboxymethylcellulose. The solutions were stored at 4° C. until use. Ribavarin (1-β-D-ribofuranosyl-1,2,4-triazole-carboxamide) was used in each subsequent experiment as a control.
(§2) Animals were treated with a 50 mg/kg/day dosage of one of the tested compound and were killed 24 hr after the final treatment and their spleens removed. […] Red blood cells were removed by haemolytic lysis.
Natural killer (NK) activity of murine cells was determined by testing splenic cells for their ability to lyse YAC-1 tumor cells in a conventional 4 hr chromium release assay as an indicator of NK was expressed as: % chromium release=(experimental counts per minute (cpm)-background cpm)/(maximum cpm-background cpm)

[3] = system: Macrophage function (IL-1 activity in splenocytes); test: Macrophage function, IL-1 activity in splenocytes by [3H]thymidine uptake in PHA-stimulated thymocytes; conditions: for Mean CPM of Treated Thymocytes ± SD: 50 mg/kg/day i.p. every other day for 4 injections, splenocytes 24 hr after final treatment, n = 5; for Effect on macrophage function (in words): 50 mg/kg, splenocytes 24 hours after final treatment, Hydrochloride
Procedure: as §1
Ribavarin (1-β-D-ribofuranosyl-1,2,4-triazole-carboxamide) was used in each subsequent experiment as a control.
as §2
Macrophage function was assessed by an interleukin-1 (IL-1) assay that utilizes responsiveness of mouse thymocytes to phytohemagglutin (PHA) which is dependent on IL-1 for its reactivity.
The cells were incubated 72 hr at 37° C. During the last 4 hr of the incubation, the cells were pulsed with [^3 H] thymidine (1 μCi/well). The cells were then harvested and [H^3 ] thymidine incorporation was determined using a direct counter.

[4] = system: Total T and B cells in splenocytes; test: Splenic T and B cell enumeration by FACS; assay type: in vivo, C57BL/6 mice; conditions: for % Cells/Spleen ± SD, B Cells / % Cells/Spleen ± SD, T Cells: 50 mg/kg/day i.p. every other day for 4 injections, n = 5; for % Cells/Spleen ± SD, B Cells: anti-Ly5; for % Cells/Spleen ± SD, T Cells: anti-Thy 1.2; for Effect on B cell counts (in words) / Effect on T cell counts (in words): 50 mg/kg, splenocytes, Hydrochloride
Excerpt: Splenic cells were enumerated with the following assay. Dispersed splenocytes were reacted with fluorescein isothiocyanate-labelled murine monoclonal antibody anti-Ly5 for B cell enumeration and phycoerythrin-labelled monoclonal antibody anti-Thy 1.2 for T cell counts. The labelled cells were then enumerated with a fluorescence-activated cell sorter (FACS) (EPICS-C, Coulter Corp., Hialeah, Fla.).

[5] = Toxicity controls: mortality and weight gain in uninfected mice; assay type: in vivo; conditions: mouse, in vivo, 25 mg/kg
Procedure: Groups of 5 uninfected mice were treated the same way and at the same times as described above. These animal were checked daily for survival. Their weigths were taken before the first treatment and 24 hours after the last treatment to determine drug effect on weight gain.

[6] = system: murinecytomegalovirus (MCMV) (Smith strain); test: MCMV titers in tissues; assay type: in vivo, Swiss Webster female mice; conditions: 25 mg/kg
[7] = system: murinecytomegalovirus (MCMV) (Smith strain); test: Mortality in MCMV-infected mice; assay type: in vivo, Swiss Webster female mice; conditions: MCMV-infected mice
[8] = 25 mg/kg i.p. once daily for 5 days from 24 hours after virus, 21 days

Compound	% Chromium Release ± SD, Effector:Target Ratio 25:1 (YAC-1 tumor cells) [%]	% Chromium Release ± SD, Effector:Target Ratio 50:1 (YAC-1 tumor cells) [%]	Mean CPM of Treated Thymocytes ± SD [3] [CPM]	Effect on macrophage function (in words) [3]	Plaque Assay, PFC relative to control (100%) ([1]; Experiment 5) [%]	Plaque Assay, PFC per 10^6 spleen cells ([1]; Experiment 5) [PFC per 10^6 spleen cells]	Immunomodulating activity (in words) [1]	% Cells/Spleen ± SD, B Cells [4] [%]	% Cells/Spleen ± SD, T Cells [4] [%]	Effect on B cell counts (in words) [4]	Effect on T cell counts (in words) [4]	Enzyme Immunoassay, IgM antibody relative to control (100%) ([2]; Experiment 5, 10 mg/kg i.p.) [%]	Plaque Assay, PFC relative to control (100%) ([1]; Experiment 8) [%]	Plaque Assay, PFC per 10^6 spleen cells ([1]; Experiment 8) [PFC per 10^6 spleen cells]	Enzyme Immunoassay, IgM antibody relative to control (100%) ([2]; Experiment 8, 10 mg/kg i.p.) [%]	further results
CCCCCCCCCCCCCCCCCCN[C@H](C(=O)N[C@H](CCC(N)=O)C(=O)O)C(C)C.Cl [BCH 1317, Octadecyl L-Valyl D-Glutamine Hydrochloride]																Plaque Assay, PFC relative to control (100%) ([1]; Experiment 9): 149%; Plaque Assay, PFC per 10^6 spleen cells ([1]; Experiment 9): 750 ± 191 PFC per 10^6 spleen cells; Enzyme Immunoassay, IgM antibody relative to control (100%) ([2]; Experiment 9, 10 mg/kg i.p.): 189%
CCCCCCCCCCCCCCCCCCOC(=O)CC[C@@H](NC(=O)[C@H](C)N)C(=O)O.Cl [BCH-524, γ-Octadecyl L-Alanyl D-Glutamate Hydrochloride]	9.8 ± 3.6	14.3 ± 1.9	5491 ± 1269	somewhat stimulatory; also recorded: macrophage stimulation	58	245 ± 90	immunosuppressors	33 ± 10.2	35 ± 9.6	suppressive; also recorded: suppressed	suppressive; also recorded: suppressed	80				Effect on natural killer (NK) cell activity (in words) (YAC-1 tumor cells; 50 mg/kg, splenocytes 24 hours after final treatment, Hydrochloride): marginally suppressive; also recorded: marginal natural killer cell suppression
CCCCCCCCCCCCCCCCCCOC(=O)[C@@H](CCC(=O)O)NC(=O)[C@H](C)N.Cl [BCH-526, α-Octadecyl L-Alanyl D-Glutamate Hydrochloride]	12.8 ± 2.1	17.2 ± 3.3	3413 ± 206	moderately inhibitory; also recorded: moderate macrophage suppression	77	325 ± 300	immunosuppressors	43 ± 1.4	40 ± 2.4	increase % B cells; also recorded: increased B cell counts	suppressing T cells; also recorded: suppressed T cell counts	82				
CCCCCCCCCCCCCCCCCCNC(=O)CC[C@@H](NC(=O)[C@H](C)N)C(N)=O.Cl [BCH-1316, L-Alanyl D-Isoglutamyl Octadecylamine Hydrochloride]							immunostimulants						153	759 ± 252	186	
Nc1nc(O)c2ncn(COC(CO)CO)c2n1 [Ganciclovir, reference compound]																Survivors (%) [5]: 100%; Survivors/total [5]: 5/5; Virus titer in Liver ([6]; Day 3): 2.6±0.2 Log10 CCID50/qram; Virus titer in Lung ([6]; Day 3): < 2.5±0.0 Log10 CCID50/qram; Virus titer in salivary gland ([6]; Day 3): 3.1±0.6 Log10 CCID50/qram; Virus titer in spleen ([6]; Day 3): 5.7±0.3 Log10 CCID50/qram; Virus titer in Liver ([6]; Day 6): 3.3±0.8 Log10 CCID50/qram; Virus titer in Lung ([6]; Day 6): 3.5±0.6 Log10 CCID50/qram; Virus titer in salivary gland ([6]; Day 6): 3.3±0.8 Log10 CCID50/qram; Virus titer in spleen ([6]; Day 6): 3.6±0.9 Log10 CCID50/qram; Survivors (%) [7, 8]: 100%; Survivors/total [7, 8]: 10/10; Mean day to death ([7]; 25 mg/kg i.p. once daily for 5 days, of mice that died on or before day 21): > 21 days
Octadecyl L-Alanyl D-Isoglutamyl γ-Glycine Hydrochloride [BCH-1315]							immunostimulants						204	1012 ± 207	202	
